Data as given in publication PMC8330735 (Journal of Enzyme Inhibition and Medicinal Chemistry, 2021).

Assays:
[1] = system: NO production in LPS-activated RAW 264.7 macrophages; assay: NO production in LPS-activated RAW 264.7 macrophages (DAF-FM); format: cell-based; settings: Mus musculus, RAW264.7; LPS 1 µg/mL activated RAW 264.7
Method: HCA7 colorectal cancer cell line was obtained from Sigma. […] Louis, MO) containing 10% heat-inactivated foetal bovine serum (HI-FBS) (Gibco, USA), 100 μg/mL streptomycin (Invitrogen, USA), and […] penicillin (Invitrogen, USA)[40]. HCA7 and RAW 264.7 cells were cultured in Dulbecco's minimal essential media (DMEM, Invitrogen) containing 10% HI-FBS, sodium pyruvate (1 mM), penicillin ([…]), and streptomycin (100 mg/m)[41]^,[42]. […] Molecular Probes, USA). Briefly, RAW 264.7 cells were cultured in black 96-well plates (200,000 cells/mL, 100 µl/well) for 24 h. […] The fluorescence intensity, which is directly proportional to NO levels, was quantified, as detailed in our previous study. IC50 values were calculated from the dose–response curves.

[2] = system: stomach ulceration in rats; assay: Gastric acute ulcerogenic activity; settings: rat, n = 5; for Ulcer Index (UI): UI = UN + US + UP×10^−1
Method: The rats from the previous experiment were fasted for 12 h., followed by the administration of additional doses of the selected compounds or the two references for two consecutive days. Six hrs after the last treatment, the animals were sacrificed, and their stomachs were removed, washed with saline solution (0.9%) and examined for ulceration using a magnifying lens. The ulcer scores were estimated according to the method prescribed by Kulkarni and as detailed in our previous studies[36–38]. The following scores were individually assigned to each lesion: normal coloured stomach, 0; red colouration, 0.5; spot ulcers, 1; haemorrhagic streaks, 1.5; ulcer >3 but <5 mm, 2; and ulcers >5 mm, 3.

| IC50 [1] | SMILES | Average Ulcer number [2] | Lesion Incidence (%) [2] | Number of rats with ulcer [2] | Ulcer Index (UI) [2] |
| --- | --- | --- | --- | --- | --- |
| 23.4 ± 1.29 µM | CC(C)Cc1ccc(C(C)C(=O)NN2C(=O)c3ccccc3N(C)C2c2ccc([N+](=O)[O-])cc2)cc1 (stereo not shown) [7c, 2-(4-Isobutylphenyl)-N-(1-methyl-2-(4-nitrophenyl)-4-oxo-1,4-dihydroquinazolin-3(2H)-yl) propenamide] | 1 | 60% | 3 | 8 |
| 9.76 ± 2.14 µM | NNC(=O)CSc1nc2ccccc2c(=O)n1NC(=O)Cc1ccccc1 [13b, N-(2-((2-hydrazinyl-2-oxoethyl)thio)-4-oxoquinazolin-3(4H)-yl)-2-phenylacetamide] | 0.4 | 40% | 2 | 4.8 |
